For 19 molecules, IC50 results are on record in patent publication US20240002388A1, “PYRIMIDINONE COMPOUNDS AND USES THEREOF” (HUTCHISON MEDIPHARMA LIMITED, priority 2020, published 2024).

This test deals with U937 cell line (human histiocytic lymphoma cell line). Briefly: U937 cell viability assay (TNF-α + Z-VAD-FMK induced necroptosis). The settings on record: U937 cells, hTNF-α 0.1 μg/mL + Z-VAD-FMK 50 μM, 20 hours, CellTiter-Glo. The class given is cell-based. A digest of the protocol: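 U937 cells (1.75×10^4/well, 1% FBS RPMI 1640) were preincubated 1 h with compound (0.0005–1.0 μM, 0.3% DMSO) and 50 μM Z-VAD-FMK, then stimulated with 0.1 μg/mL TNF-α for 20 h at 37 °C. Viability was read by CellTiter-Glo luminescence. Inhibition was normalised between TNF-α+Z-VAD and unstimulated wells, and IC50 was fitted.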
For orientation: In ATP-based viability assays light output follows the ATP content of the culture.

Take `CC(C)n1cncc(-c2ccc(C3(NC(=O)c4ncc5cnn(CC6CC6)c5n4)CC3)cc2F)c1=O` [Compound 73]: for the setting “Homo sapiens, U-937”, the IC50 worked out at 2 nM.

As to `CC(C)n1ncc2cnc(C(=O)NC3(c4ccc(-c5cncn(CC6CC6)c5=O)cc4F)CC3)nc21` [Compound 74], for the setting “Homo sapiens, U-937”, the IC50 is 1 nM. Still for that read-out and setting: next, `CC(C)n1ncc2cnc(C(=O)NC3(c4ccc(-c5cncn(CC6CC6)c5=O)c(F)c4)CC3)nc21` [Compound 75]: 2 nM; `C[C@@H](n1cncc(-c2ccc(C3(NC(=O)c4ncc5cnn(CC6CC6)c5n4)CC3)c(F)c2)c1=O)C(F)(F)F` [Compound 76]: 3 nM; `CC(C)n1ncc2cnc(C(=O)NC3(c4ccc(-c5cncn(C6CCOCC6)c5=O)cc4)CC3)nc21` [Compound 77]: 10 nM. The same measure, in the same setting: next, `CC(C)n1ncc2cnc(C(=O)NC3(c4ccc(-c5cncn(C6(C)CC6)c5=O)cc4)CC3)nc21` [Compound 78]: 8 nM; `CC(C)n1ncc2cnc(C(=O)NC3(c4ccc(-c5cncn(C6(C)CCC6)c5=O)cc4)CC3)nc21` [Compound 79]: 2 nM; `CC(C)n1ncc2cnc(C(=O)NC3(c4ccc(-c5cncn([C@H](C)C6CC6)c5=O)cc4)CC3)nc21` [Compound 84, (R)—N-(1-(4-(1-(1-cyclopropylethyl)-6-oxo-1,6-dihydropyrimidin-5-yl)phenyl)cyclopropyl)-1-i-propyl-1H-pyrazolo[3,4-d]pyrimidine-6-carboxamide]: 1 nM. Same read-out and setting: next, `CC(C)n1ncc2cnc(C(=O)NC3(c4ccc(-c5cncn([C@@H](C)C6CC6)c5=O)cc4)CC3)nc21` [Compound 85, (S)—N-(1-(4-(1-(1-cyclopropylethyl)-6-oxo-1,6-dihydropyrimidin-5-yl)phenyl)cyclopropyl)-1-i-propyl-1H-pyrazolo[3,4-d]pyrimidine-6-carboxamide]: 2 nM; `CC(C)n1ncc2cnc(C(=O)NC3(c4ccc(-c5cncn(CC6(C)CC6)c5=O)cc4)CC3)nc21` [Compound 86]: 1 nM. `CC(C)n1ncc2cnc(C(=O)NC3(c4ccc(-c5cncn([C@H]6C[C@H](F)C6)c5=O)cc4)CC3)nc21` [Compound 87, N-(1-(4-(1-(trans-3-fluorocyclobutyl)-6-oxo-1,6-dihydropyrimidin-5-yl)phenyl)cyclopropyl)-1-i-propyl-1H-pyrazolo[3,4-d]pyrimidine-6-carboxamide]: the IC50 (Homo sapiens, U-937) stood at 11 nM.

For `CC(C)n1ncc2cnc(C(=O)NC3(c4ccc(-c5cncn([C@H]6C[C@@H](F)C6)c5=O)cc4)CC3)nc21` [Compound 88, N-(1-(4-(1-(cis-3-fluorocyclobutyl)-6-oxo-1,6-dihydropyrimidin-5-yl)phenyl)cyclopropyl)-1-i-propyl-1H-pyrazolo[3,4-d]pyrimidine-6-carboxamide], the IC50 came out at 11 nM. In the case of `CC(C)n1cncc(-c2ccc(C3(NC(=O)c4ncc5cnn([C@H](C)C6CC6)c5n4)CC3)cc2)c1=O` [Compound 89, (R)-1-(1-cyclopropylethyl)-N-(1-(4-(1-i-propyl-6-oxo-1,6-dihydropyrimidin-5-yl)phenyl)cyclopropyl)-1H-pyrazolo[3,4-d]pyrimidine-6-carboxamide], under “Homo sapiens, U-937”, the IC50 was 5 nM. Same read-out and setting: next, `CC(C)n1cncc(-c2ccc(C3(NC(=O)c4ncc5cnn([C@@H](C)C6CC6)c5n4)CC3)cc2)c1=O` [Compound 90, (S)-1-(1-cyclopropylethyl)-N-(1-(4-(1-i-propyl-6-oxo-1,6-dihydropyrimidin-5-yl)phenyl)cyclopropyl)-1H-pyrazolo[3,4-d]pyrimidine-6-carboxamide]: 4 nM; `CC(C)n1cncc(-c2ccc(C3(NC(=O)c4ncc5cnn(C(C)C)c5n4)CC3)c(F)c2Cl)c1=O` [Compound 91]: 11 nM. Consider `CC(C)n1cncc(-c2cc(F)c(C3(NC(=O)c4ncc5cnn(C(C)C)c5n4)CC3)c(F)c2)c1=O` [Compound 92], for which, for the setting “Homo sapiens, U-937”, the IC50 came out at 100 nM. The same measure, in the same setting: then `CC(C)n1cncc(-c2ccc(C3(NC(=O)c4ncc5cnn(C(C)C)c5n4)CC3)c(F)c2F)c1=O` [Compound 93], with 6 nM.

Regarding `CC(C)n1ncc2cnc(C(=O)NC3(c4cc(F)c(-c5cncn(CC6CC6)c5=O)cc4F)CC3)nc21` [Compound 94], the IC50 (Homo sapiens, U-937) stood at 3 nM.

As to `CC(C)n1ncc2cnc(C(=O)NC3(c4ccc(-c5cncn(CC6CC6)c5=O)c(F)c4F)CC3)nc21` [Compound 95], the IC50 (Homo sapiens, U-937) was determined as 3 nM.

As usually defined, the IC50 is the concentration that inhibits the measured activity by half.
